According to patent US12195512B2, “Affinity ligands for antibody Fc region” (Univerza v Ljubljani, priority 2018, dated 2025):
No end group written: not given here.

Legend:
[1] = tested on: human IgG subclasses (IgG1, IgG2, IgG3 and IgG4) and human intravenous immunoglobulins; test: assay akin to ELISA with (peptide)4 SA-HRP complexes on human IgGs; format: binding; details: for binding of biotinylated synthetic peptides to human IgGs: C-terminal linker SEQ ID NO: 181 biotinylated, tetrameric (peptide)4 SA-HRP complexes; for binding compared with the parental peptide SEQ ID NO: 2: biotinylated synthetic peptides, (peptide)4 SA-HRP complexes, human IgGs
Procedure: (§1) The binding activity of the described biotinylated synthetic peptides to different immunoglobulins was evaluated using an assay akin to ELISA. Wells were coated with the different subclasses of human IgGs or human intravenous immunoglobulins. All the wells were blocked with BSA. A biotinylated synthetic peptide and horseradish peroxidase (HRP)-conjugated streptavidin (SA-HRP) were mixed in advance at molar ratio of 4:1 to formulate tetrameric (peptide)4 SA-HRP complexes and then the mixtures were added to individual wells. After washing, the (peptide)4 SA-HRP complexes were detected with TMB solution.

human IgG Fc fragment [2] = test: phage ELISA of phage-displayed peptides on human Fc fragment; format: binding; details: peptide displayed on phage; absorbance at 450 nm
Description: Three different phage display libraries were subjected to separate panning processes according to the protocol known to one skilled in the art. Various Fc-binding peptides were selected by targeting biotin-conjugated human Fc fragment prepared by random biotinylation of amine residues using EZ-Link™ Sulfo-NHS-SS-Biotin (Thermo Fisher Scientific, Rockford, IL, USA). After three rounds of affinity selection, individual clones were picked for phage Enzyme Linked Immuno-Sorbent Assay (ELISA) in order to evaluate their Fc fragment binding ability.
(§2) Wells of a 96-well microplate (Nunc, Maxisorp) were either coated with human Fc fragment solution or streptavidin as negative control. The wells were blocked with BSA and contacted with amplified population of each individual clone. Bound phages were detected by the addition of horseradish peroxidase (HRP)-conjugated anti-M13 monoclonal antibodies using the chromogenic substrate (3,3′,5,5′-tetramethylbenzidine (TMB)) solution, and absorbance at 450 nm was measured.
The experiment was performed in triplicate.
In order to investigate the contribution of individual amino acid residues of the truncated peptide SEQ ID NO: 2 to the Fc binding, alanine scanning strategy was carried out. […] However, we determined specific positions where alanine substitutions were well tolerated in terms of preserving binding activity. […]

human IgG Fc fragment [3] = test: competitive phage FLISA with Staphylococcal protein A; format: binding
Procedure: SpA is known to interact specifically with the region at the CH2-CH3 interface of immunoglobulins. Wells of the black Nunc MaxiSorp microtiter plate were either coated with human IgG Fc fragment or left uncoated (controls). Wells were blocked with BSA and contacted with purified fluorescein-labelled phage clone (the labelling procedure was adapted from the instructions of FITC manufacturer, Sigma-Aldrich). Phage was allowed to compete for the Fc binding with SpA in concentrations 1 μM, 100 nM or 10 nM. After 1 h-incubation at room temperature, the content was discarded and wells were washed with 0.1% PBST and finally filled with PBS. Fluorescence intensities in individual wells were measured at 510 nm upon excitation at 485 nm. The experiment was performed in triplicate.

[4] = tested on: human IgG Fc fragment and native human IgGs; test: pull-down assay with peptide-coated streptavidin paramagnetic beads; details: versus parent peptide SEQ ID NO: 2
Procedure: Selected peptides (SEQ ID NO: 2, SEQ ID NO: 30, and SEQ ID NO: 26) with biotin attached via epsilon-amino group of C-terminal amidated lysine in added linker SEQ ID NO: 181 were synthesized and coupled to streptavidin-coated paramagnetic beads. The same paramagnetic beads without addition of peptide and the same paramagnetic beads coupled with unrelated biotinylated peptide SEQ. ID 185 were used as negative controls. First, the Fc fragment of human antibodies (2 μg) was spiked into PBS and incubated with peptide-coated paramagnetic beads. The beads were then pelleted, washed with 0.1% PBST, and the bound material was eluted with acidic buffer (0.2 M glycine/HCl, pH 2.2). The low pH eluate was immediately neutralized with 1M Tris/HCl, pH 9.1. The eluates obtained from pull-down assay were analyzed by DotBlot assay and Western blotting using polyclonal goat anti-human IgG (H+L) HRP conjugate for detection (results not shown). Equivalent pull-down assay was carried out also from serum free DMEM growth medium spiked with human Fc fragment (2 μg) with peptide SEQ ID NO: 2 (FIG. 11). Additionally, the pull-down assay was also made from intact human sera. The presence of human IgGs in the eluate was confirmed by Coomassie blue staining (FIG. 13) and Western blot analysis (FIG. 12) using HRP-conjugated goat anti-human (H+L) antibodies (BioRad).

[5] = tested on: human IgGs of different subclasses (IgG1, IgG2, IgG3 and IgG4); test: phage ELISA on subclasses of native human IgGs; format: binding; details: peptide displayed on phage as P3 fusion
Procedure: as §2
(§3) The binding activity of phage clone displaying the minimized peptide SEQ ID NO: 2, was further evaluated by phage ELISA (as described above) using different subclasses of native human IgGs and different therapeutic monoclonal antibodies. BSA, avidin and SA were used as targets in negative control wells.

[6] = tested on: therapeutic monoclonal antibodies; test: phage ELISA on therapeutic monoclonal antibodies; format: binding; details: peptide displayed on phage as P3 fusion
Procedure: as §2, §3

BSA, avidin and SA = test: phage ELISA on negative control targets; format: binding; details: peptide displayed on phage
Procedure: as §2, §3

[7] = tested on: IgGs of different species (mouse, donkey, rabbit and sheep); test: assay akin to ELISA with peptide SA-HRP complexes on IgGs of animal species; format: binding; details: biotinylated synthetic peptide complexed to SA-HRP, sheep IgG
Procedure: as §1
Additionally, the binding activity of the synthetic peptide SEQ ID NO: 2 to immunoglobulins of different animal species (mouse, rabbit, donkey, and sheep) was evaluated by an assay akin to ELISA essentially as described above. Peptides SEQ ID NO: 184 and SEQ ID NO: 185 represent two control biotin-labelled synthetic peptides with unrelated amino acids sequences.

human Fc fragment = test: surface plasmon resonance (BIAcore X100), peptide immobilized via streptavidin; format: binding; details: 25° C; Fc 10-160 nM, single cycle
Procedure: Interaction between the synthetic biotinylated peptide ligand with amino acid sequence identical to SEQ ID NO: 2 and human Fc fragment was analyzed by surface plasmon resonance (SPR) using BIAcoreX100 (BIAcore) at 25° C. Biotinylated synthetic peptide of the present invention was immobilized to the matrix indirectly through streptavidin. Streptavidin (SA) was immobilized to the surface of CM-5 chip through random amine coupling according to the manufacturer's recommendations to achieve a stable response corresponding to approximately 4000 resonance units. The first cell surface was prior activated and deactivated and used as a reference cell during injections. After successful covalent immobilization of SA to dextran matrix via amino groups, a 120 nM solution (pH 5) of biotinylated synthetic peptide SEQ ID NO: 2 was injected over a sensor chip SA to immobilize the peptide onto the chip. The amount of immobilized peptide was adjusted to the stable response corresponding to approximately 200 RU. Subsequently, solutions of human Fc fragment (the analyte) of various concentrations (10 nM, 20 nM, 40 nM, 80 nM, and 160 nM) in running buffer (0.005% P20 in PBS) were injected at a flow rate of 10 μL/min at through flow cells in a manner known as single cycle. Binding reaction between human Fc fragment and the peptide was recorded. […]

## GSYWYEVWF (not fully specified (C-terminus)) [SEQ ID NO: 30]
[1]
  binding of biotinylated synthetic peptides to human IgGs: specifically bound to human IgGs
  binding compared with the parental peptide SEQ ID NO: 2: significantly increased binding

## AGNGSYWYQVWF [SEQ ID NO: 1]
Human IgG Fc fragment [2]
  relative binding of phage clones to human IgG Fc (phage ELISA): strongest binding phage clone
Human IgG Fc fragment [3]; inferred from competition with SpA
  binding site on Fc fragment relative to SpA: at least partially overlap

## SpA: Staphylococcal protein A; cell wall constituent protein derived from Staphylococcal aureus [reference compound]
Human IgG Fc fragment [3]; SpA 1 μM, 100 nM or 10 nM, 1 h room temperature
  inhibition of binding of FITC-labelled phage clone SEQ ID NO: 1 to immobilized human IgG Fc: the higher the concentration of SpA added, the more effectively is binding of the phage clone to human IgG Fc fragment inhibited

## GSYWYDVWF (not fully specified (C-terminus)) [SEQ ID NO: 26]
[1]
  binding of biotinylated synthetic peptides to human IgGs: specifically bound to human IgGs
  binding compared with the parental peptide SEQ ID NO: 2: significantly increased binding
[4]
  trapping efficiency in pull-down assay: significantly higher than the parent peptide SEQ ID NO: 2

## GSYWYQVWF (H-GSYWYQVWF; not fully specified (C-terminus)) [SEQ ID NO: 2]
[5]
  binding to human IgG subclasses (phage ELISA): strongly bound
[6]
  binding to tested therapeutic monoclonal antibodies (phage ELISA): strongly bound
BSA, avidin and SA
  binding to negative controls (phage ELISA): no significant binding
[1]
  binding of biotinylated synthetic peptides to human IgGs: specifically bound to human IgGs
[7]
  binding to IgGs of different animal species: specifically bound
Human Fc fragment
  binding of human Fc to immobilized peptide (SPR): exhibited binding to human Fc
  dissociation rate (SPR): slow
